Experimental data from patent US9353104B2, “Substituted pyridizinone derivatives as PDE10 inhibitors” (priority 2013, dated 2016).

These compounds were tested against human PDE10A2 (Homo sapiens (Human), UniProt Q9Y233) (assay: PDE10 fluorescence polarization (IMAP FP) inhibition assay). Settings: human PDE10A2 lysate, FAM-labeled cAMP 50 nM, room temperature; read-out: PDE10A Ki.
Assay type: biochemical
Summary of the method: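 Cytoplasmic lysate of AD293 cells transiently expressing human PDE10A2, diluted for ~20% conversion of 50 nM FAM-cAMP, in 10 mM Tris pH 7.2, 10 mM MgCl2, 1 mM DTT, 0.01% Tween-20. Reaction 30 min at room temperature, read by IMAP fluorescence polarization; 10-point 3-fold titrations, 1% DMSO as 0%, reference PDE10 inhibitor at 5,000× Ki as 100%.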

human PDE10A2, sequence (Q9Y233 267-1055): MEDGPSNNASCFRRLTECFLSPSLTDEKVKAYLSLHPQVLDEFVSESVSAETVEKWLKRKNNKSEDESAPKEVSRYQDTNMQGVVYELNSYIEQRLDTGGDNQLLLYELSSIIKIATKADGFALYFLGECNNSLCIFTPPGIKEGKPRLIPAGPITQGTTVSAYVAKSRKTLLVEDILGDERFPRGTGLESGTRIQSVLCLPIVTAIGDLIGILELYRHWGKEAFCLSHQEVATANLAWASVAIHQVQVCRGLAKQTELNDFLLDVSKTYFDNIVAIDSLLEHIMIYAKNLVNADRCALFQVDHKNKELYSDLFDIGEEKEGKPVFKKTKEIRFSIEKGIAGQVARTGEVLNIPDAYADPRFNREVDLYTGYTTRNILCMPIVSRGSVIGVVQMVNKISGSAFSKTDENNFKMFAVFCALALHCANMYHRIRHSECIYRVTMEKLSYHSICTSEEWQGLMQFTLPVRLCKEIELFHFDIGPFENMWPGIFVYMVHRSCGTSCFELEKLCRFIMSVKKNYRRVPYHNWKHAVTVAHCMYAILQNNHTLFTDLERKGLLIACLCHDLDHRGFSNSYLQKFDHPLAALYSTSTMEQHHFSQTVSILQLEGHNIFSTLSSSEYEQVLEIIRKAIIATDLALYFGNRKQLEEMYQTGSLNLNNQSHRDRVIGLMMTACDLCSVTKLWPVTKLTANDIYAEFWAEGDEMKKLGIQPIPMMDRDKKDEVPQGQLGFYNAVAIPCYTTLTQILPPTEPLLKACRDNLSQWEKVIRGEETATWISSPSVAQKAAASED

Row | Ki | SMILES
1 | 0.34 nM | Cn1cc(CNc2cc(OC[C@H]3C[C@@H]3c3ccc(Cl)cn3)nn(C)c2=O)cn1 [Example 27, 6-(((1S,2S)-2-(5-chloro-pyridin-2-yl)cyclopropyl)-methoxy)-2-methyl-4-((1-methyl-1H-pyrazol-4-yl)methylamino)pyridazin-3(2H)-one]
2 | 0.478 nM | Cn1cc(CNc2cc(OC[C@H]3C[C@@H]3c3ccn(C)n3)nn(C)c2=O)cn1 [Example 23, 2-methyl-6-(((1S,2S)-2-(1-methyl-1H-pyrazol-3-yl)cyclopropyl)methoxy)-4-((1-methyl-1H-pyrazol-4-yl)methylamino)-pyridazin-3(2H)-one]
3 | 8.21 nM | Cn1ccc([C@H]2C[C@@H]2COc2cc(NCc3nccs3)c(=O)n(C)n2)n1 [Example 47, 2-methyl-6-(((1S,2S)-2-(1-methyl-1H-pyrazol-3-yl)cyclopropyl)methoxy)-4-((thiazol-2-ylmethyl)amino)pyridazin-3(2H)-one]
4 | 0.197 nM | Cn1cc(CNc2cc(OC[C@@H]3C[C@H]3c3nn(C)c4ccccc34)nn(C)c2=O)cn1 [Example 113, 2-methyl-6-(((1R,2R)-2-(1-methyl-1H-indazol-3-yl)cyclopropyl)methoxy)-4-((1-methyl-1H-pyrazol-4-yl)methylamino) pyridazin-3(2H)-one]
5 | 0.004 nM | Cc1ccc(CNc2cc(OC[C@H]3C[C@@H]3c3ccc4ccccc4n3)nn(C)c2=O)c(C)n1 [Example 57, 4-(((2,6-dimethylpyridin-3-yl)methyl)amino)-2-methyl-6-(((1S,2S)-2-(quinolin-2-yl)cyclopropyl)methoxy)-pyridazin-3(2H)-one]
6 | 75 nM | CN(C)c1c(CNc2cc(OC[C@H]3C[C@@H]3c3ccn(C)n3)nn(C)c2=O)cnn1C [Example 82, 4-(((5-(dimethylamino)-1-methyl-1H-pyrazol-4-yl)methyl)amino)-2-methyl-6-(((1S,2S)-2-(1-methyl-1H-pyrazol-3-yl)cyclopropyl)methoxy)-pyridazin-3(2H)-one]
7 | 42.6 nM | COc1ccc([C@H]2C[C@@H]2COc2cc(NCc3cnn(C)c3N(C)C)c(=O)n(C)n2)nc1 [Example 83, 4-(((5-(dimethylamino)-1-methyl-1H-pyrazol-4-yl)methyl)amino)-6-(((1S,2S)-2-(5-methoxypyridin-2-yl)cyclopropyl)methoxy)-2-methylpyridazin-3(2H)-one]
8 | 0.003 nM | COc1ccc([C@H]2C[C@@H]2COc2cc(NCc3ccc(C)nc3C)c(=O)n(C)n2)nc1 [Example 50, 4-(((2,6-dimethylpyridin-3-yl)methyl)amino)-6-(((1S,2S)-2-(5-methoxypyridin-2-yl)cyclopropyl)methoxy)-2-methylpyridazin-3(2H)-one]
9 | 0.806 nM | Cc1ccc(CNc2cc(OC[C@H]3C[C@@H]3c3ccn(C)n3)nn(C)c2=O)cn1 [Example 20, 2-methyl-6-(((1S,2S)-2-(1-methyl-1H-pyrazol-3-yl)cyclopropyl)methoxy)-4-((6-methylpyridin-3-yl)methylamino)pyridazin-3(2H)-one]
10 | 0.176 nM | Cc1cnc(CNc2cc(OC[C@H]3C[C@@H]3c3ccc(F)cn3)nn(C)c2=O)s1 [Example 32, 6-(((1S,2S)-2-(5-fluoropyridin-2-yl)cyclopropyl)methoxy)-2-methyl-4-((5-methylthiazol-2-yl)methylamino)pyridazin-3(2H)-one]
11 | 7.9 nM | C#CCN(Cc1ccc(OC)cc1)c1cc(OC[C@H]2C[C@@H]2c2ccc(OC)cn2)nn(C)c1=O [Example 145, 4-((4-methoxybenzyl)(prop-2-ynyl)amino)-6-(((1S,2S)-2-(5-methoxypyridin-2-yl)cyclopropyl)methoxy)-2-methylpyridazin-3(2H)-one]
12 | 0.056 nM | Cc1ccc([C@H]2C[C@@H]2COc2cc(NCc3cn(C)nc3C(F)(F)F)c(=O)n(C)n2)nc1 [Example 104, 2-methyl-4-(((1-methyl-3-(trifluoromethyl)-1H-pyrazol-4-yl)methyl)-amino)-6-(((1S,2S)-2-(5-methylpyridin-2-yl)cyclo-propyl)methoxy)pyridazin-3(2H)-one]
13 | 0.004 nM | COc1ccc([C@H]2C[C@@H]2COc2nn(C)c(=O)c(NCc3nnc(C)s3)c2Cl)nc1 [Example 141, 5-chloro-6-(((1S,2S)-2-(5-methoxypyridin-2-yl)cyclopropyl)methoxy)-2-methyl-4-((5-methyl-1,3,4-thiadiazol-2-yl)methylamino)pyridazin-3(2H)-one]
14 | 75 nM | COc1ccc([C@H]2C[C@@H]2COc2cc(NC(=O)c3cc(C)nn3C)c(=O)n(C)n2)nc1 [Example 101, N-(6-(((1S,2S)-2-(5-methoxypyridin-2-yl)-cyclopropyl)methoxy)-2-methyl-3-oxo-2,3-dihydropyridazin-4-yl)-1,3-dimethyl-1H-pyrazole-5-carboxamide]
15 | 0.005 nM | Cn1cc(CNc2cc(OC[C@H]3C[C@@H]3c3ccc4c(n3)CCC4)nn(C)c2=O)cn1 [Example 125, 6-(((1S,2S)-2-(6,7-dihydro-5H-cyclopenta[b]pyridin-2-1)cyclopropyl)methoxy)-2-methyl-4-((1-methyl-1H-pyrazol-4-yl)methylamino-)pyridazin-3(2H)-one]
16 | 0.013 nM | Cc1ccc([C@H]2C[C@@H]2COc2cc(NCc3nnc(C)s3)c(=O)n(C)n2)nc1 [Example 1, 2-methyl-4-((5-methyl-1,3,4-thiadiazol-2-yl)methylamino)-6-(((1S,2S)-2-(5-methylpyridin-2-yl)cyclopropyl)methoxy)pyridazin-3(2H)-one]
17 | 1.53 nM | Cc1ccc([C@H]2C[C@@H]2COc2cc(NCc3c(C)nn(C)c3Cl)c(=O)n(C)n2)nc1 [Example 38, 4-((5-chloro-1,3-dimethyl-1H-pyrazol-4-yl)methyl-amino)-2-methyl-6-(((1S,- 2S)-2-(5-methyl-pyridin-2-yl)cyclopropyl)methoxy)-pyridazin-3(2H)-one]
18 | 0.911 nM | Cc1nnc(CN(C)c2cc(OC[C@H]3C[C@@H]3c3ccc4ccccc4n3)nn(C)c2=O)s1 [Example 36, 2-methyl-4-(methyl((5-methyl-1,3,4-thiadiazol-2-yl)methyl)amino)-6-(((1S,2S)-2-(quinolin-2-yl)cyclopropyl)methoxy)-pyridazin-3(2H)-one]
19 | 3.6 nM | Cc1cc(CNc2cc(OC[C@H]3C[C@@H]3c3ccn(C)n3)nn(C)c2=O)nn1C [Example 129, 4-((1,5-dimethyl-1H-pyrazol-3-yl)methylamino)-2-methyl-6-(((1S,2S)-2-(1-methyl-1H-pyrazol-3-yl)cyclopropyl)methoxy) pyridazin-3(2H)-one]
20 | 0.02 nM | Cc1cc(CNc2cc(OC[C@H]3C[C@@H]3c3ccc(Cl)cn3)nn(C)c2=O)n(C)n1 [Example 33, 6-(((1S,2S)-2-(5-chloropyridin-2-yl)cyclopropyl)methoxy)-4-((1,3-dimethyl-1H-pyrazol-5-yl)methylamino)-2-methylpyridazin-3(2H)-one]
21 | 75 nM | COc1ccc(Cn2nc(OC[C@H]3C[C@@H]3c3ccc(OC)cn3)cc(NCc3nnc(C)s3)c2=O)cc1 [Example 142, 2-(4-methoxybenzyl)-6-(((1S,2S)-2-(5-methoxy-pyridin-2-yl)cyclopropyl-)methoxy)-4-((5-methyl-1,3,4-thiadiazol-2-yl)methyl-amino)pyridazin-3(2H)-one]
22 | 0.552 nM | Cn1cc(CNc2cc(OC[C@H]3C[C@@H]3c3ccc(OC(F)F)cn3)nn(C)c2=O)cn1 [Example 30, 6-(((1S,2S)-2-(5-(difluoromethoxy)pyridin-2-yl)cyclopropyl)methoxy)-2-methyl-4-((1-methyl-1H-pyrazol-4-yl)methylamino)pyridazin-3(2H)-one]
23 | 1.26 nM | Cn1cc(CNc2cc(OC[C@H]3C[C@@H]3c3ccc(F)cn3)nn(C)c2=O)cn1 [Example 19, 6-(((1S,2S)-2-(5-fluoropyridin-2-yl)cyclo-propyl)methoxy)-2-methyl-4-((1-methyl-1H-pyrazol-4-yl)methylamino-)-pyridazin-3(2H)-one]
24 | 1.27 nM | COc1ccc([C@H]2C[C@@H]2COc2cc(NCc3cnn(C)c3Cl)c(=O)n(C)n2)nc1 [Example 96, 4-(((5-chloro-1-methyl-1H-pyrazol-4-yl)methyl)-amino)-6-(((1S,2S)-2-(5-methoxypyridin-2-yl)-cyclopropyl)methoxy)-2-methylpyridazin-3(2H)one]
25 | 0.295 nM | CCc1cc(CNc2cc(OC[C@H]3C[C@@H]3c3ccn(C)n3)nn(C)c2=O)n(C)n1 [Example 139, 4-((3-ethyl-1-methyl-1H-pyrazol-5-yl)methylamino)-2-methyl-6-(((1S,2S)-2-(1-methyl-1H-pyrazol-3-yl)cyclopropyl)methoxy) pyridazin-3(2H)-one]
26 | 5.9 nM | COc1ccc([C@H]2C[C@@H]2COc2cc(N(Cc3ccc(C)nc3C)Cc3ccc(C)nc3C)c(=O)n(C)n2)nc1 [Example 91, 4-(bis((2,6-dimethylpyridin-3-yl)methyl)amino)-6-(((1S,2S)-2-(5-methoxypyridin-2-yl)cyclopropyl)methoxy)-2-methylpyridazin-3(2H)-one]
27 | 0.077 nM | Cc1ncc(CNc2cc(OC[C@@H]3C[C@H]3c3nn(C)c4ccccc34)nn(C)c2=O)s1 [Example 110, 2-methyl-6-(((1R,2R)-2-(1-methyl-1H-indazol-3-yl)cyclopropyl)methoxy)-4-((2-methylthiazol-5-yl)methylamino)pyridazin-3(2H)-one]

Row | SMILES | Ki
28 | COc1ccc([C@H]2C[C@@H]2COc2cc(NCc3cccnc3)c(=O)n(C)n2)nc1 [Example 135, 6-(((1S,2S)-2-(5-methoxy-pyridin-2-yl)cyclopropyl-)methoxy)-2-methyl-4-(pyridin-3-ylmethylamino-)pyridazin-3(2H)-one] | 0.261 nM
29 | Cc1nnc(CNc2cc(OC[C@H]3C[C@@H]3c3ccc(OC(F)F)cn3)nn(C)c2=O)s1 [Example 5, 6-(((1S,2S)-2-(5-(difluoromethoxy)pyridin-2-yl)cyclopropyl)methoxy-)-2-methyl-4-((5-methyl-1,3,4-thiadiazol-2-yl)-methylamino)pyridazin-3(2H)-one] | 0.157 nM
